Where two headings read alike, the source gives them in different places.
Legend:
Assay in all cases: 3D clonogenic assay (PDX)
Type in all cases: cell-based, human
LXFL 1674 = settings: LXFL 1674, Lung Large Cell; for IC50: Homo sapiens
Protocol: (§1) The anti-tumor efficacy of S1 in the patient-derived tumor xenograft (PDX) tumor panel was assessed, where the efficacy of S1 in PDX tumor panel in the 96-well format, in 10 concentrations in duplicate was performed. Colony formation of tumor cell suspensions in a soft-agar matrix was observed and quantified. The output is IC50 values and dose response-relationships based on number of colonies in control and treatment wells, as identified by an automated image analysis algorithm. Stock solution of S1 was prepared in 100% DMSO at 10 mM concentration (stored at -20°C) and reused for each experiment. Compound final test concentrations: Dilution series ½ i.e.: 50µM, 15, 5, 1.5, 0.5, 0.15, 0.05, 0.015, 0.005 and 0.0015.
(§2) Tumor xenografts (also referred to as patient-derived tumor xenografts) were passaged as subcutaneous xenografts in NMRI nu/nu mice. Tumor xenograft were removed from mice under sterile conditions, mechanically disaggregated and subsequently incubated with an enzyme cocktail consisting of collagenase type IV (41 U/mL), DNase I (125 U/mL), hyaluronidase type III (100 U/mL) and dispase II (1.0 U/mL) in RPMI 1640 medium at 37°C for 60 - 120 minutes. Cells were passed through sieves of 100 µm and 40 µm mesh size and washed with RPMI 1640 medium. The percentage of viable cells was determined in a Neubauer-hemocytometer using trypan blue exclusion. Aliquots of the cells were frozen down, and stored in liquid nitrogen.
(§3) The clonogenic assay test was carried out in 96 well plate format. For each test a frozen aliquot of tumor cells prepared from tumor xenografts was thawed and assay plates were prepared as follows: each test well contained 3 layers of equal volume, 2 layers of semi-solid medium (bottom and top layer), and one layer of medium supernatant, with or without test compound. The bottom layer consisted of 0.05 mL/well Iscove's Modified Dulbecco's Medium (Invitrogen), supplemented with 20% (v/v) fetal calf serum (Sigma), 0.01% (w/v) gentamicin (Invitrogen) and 0.75% (w/v) agar (BD Biosciences). Tumor cells were added to 0.05 mL of the same culture medium supplemented with 0.4% (w/v) agar and plated onto the bottom layer. After 24 h, test compounds were added after serial dilution in DMSO and transfer in cell culture medium, and left on the cells for the duration of the experiment (continuous exposure, 0.05 mL drug overlay). Every dish included six untreated control wells and drug-treated groups in duplicate at 10 concentrations. Cultures were incubated at 37 °C and 7.5% CO2 in a humidified atmosphere for 8 to 13 days and monitored closely for colony growth using an inverted microscope. Within this period, ex vivo tumor growth lead to the formation of colonies with a diameter of >50 µm. At the time of maximum colony formation, counts were performed with an automatic image analysis system. 24 h prior to evaluation, vital colonies were stained with a sterile aqueous solution of 2-(4-iodophenyl)-3-(4-nitrophenyl)-5-phenyltetrazolium chloride (1 mg/mL, 100 µL/well). Sigmoidal concentration-response curves were fitted to the data points obtained for each tumor model using 4 parameter non-linear curve fit (Oncotest Warehouse Software). IC50 values are reported as relative IC50 values, being the concentration of test compound that give a response (inhibition of colony formation/viability) half way between the top and bottom plateau of the sigmoidal concentration-response curve (inflection point of the curve), or as absolute IC50 values, being the concentration of test compound at the intersection of the concentration-response curves with T/C = 50%. For calculation of mean IC50 values the geometric mean was used. Results are presented as mean graph plots or heat maps (individual IC50 values relative to the geometric mean IC50 value) over all cell lines as tested.

RXF 1781 = settings: RXF 1781, Renal; for IC50: Homo sapiens
Protocol: as §1, §2, §3

PAXF 2116 = settings: PAXF 2116, Pancreas; for IC50: Homo sapiens
Protocol: as §1, §2, §3

PAXF 2005 = settings: PAXF 2005, Pancreas; for IC50: Homo sapiens
Protocol: as §1, §2, §3

OVXF 1023 = settings: OVXF 1023, Ovarian; for IC50: Homo sapiens, OVXF1023
Protocol: as §1, §2, §3

GXF 97 = settings: GXF 97, Gastric; for IC50: Homo sapiens
Protocol: as §1, §2, §3

SXFS 627 = settings: SXFS 627, Sarcoma Soft Tissue; for IC50: Homo sapiens
Protocol: as §1, §2, §3

RXF 486 = settings: RXF 486, Renal; for IC50: Homo sapiens
Protocol: as §1, §2, §3

CXF 647 = settings: CXF 647, Colorectal; for IC50: Homo sapiens
Protocol: as §1, §2, §3

MAXF 713 = settings: MAXF 713, Breast; for IC50: Homo sapiens
Protocol: as §1, §2, §3

PXF 1752 = settings: PXF 1752, Pleuramesothelioma; for IC50: Homo sapiens
Protocol: as §1, §2, §3

CXF 243 = settings: CXF 243, Colorectal; for IC50: Homo sapiens
Protocol: as §1, §2, §3

SMILES: O[C@H](c1cc(-c2ccc(Cl)cc2)nc2ccccc12)[C@@H]1CCCCN1 [S1, (R)-(2-(4-chlorophenyl)quinolin-4-yl)((S)-piperidin-2-yl)methanol]
- IC50 (LXFL 1674; read-out: abs. IC50): 6.68 µM
- IC50 (LXFL 1674; read-out: rel. IC50): 6.59 µM
- b (bottom plateau of concentration-effect curve) (LXFL 1674): 9
- t (top plateau of concentration-effect curve) (LXFL 1674): 93
- IC50 (RXF 1781; read-out: abs. IC50): 11.1 µM
- IC50 (RXF 1781; read-out: rel. IC50): 11.1 µM
- b (bottom plateau of concentration-effect curve) (RXF 1781): 8
- t (top plateau of concentration-effect curve) (RXF 1781): 112
- IC50 (PAXF 2116; read-out: abs. IC50): 9.16 µM
- IC50 (PAXF 2116; read-out: rel. IC50): 8.85 µM
- b (bottom plateau of concentration-effect curve) (PAXF 2116): 32
- t (top plateau of concentration-effect curve) (PAXF 2116): 112
- IC50 (PAXF 2005; read-out: abs. IC50): 9.16 µM
- IC50 (PAXF 2005; read-out: rel. IC50): 9.06 µM
- b (bottom plateau of concentration-effect curve) (PAXF 2005): 11
- t (top plateau of concentration-effect curve) (PAXF 2005): 106
- IC50 (OVXF 1023; read-out: abs. IC50): 7.49 µM
- IC50 (OVXF 1023; read-out: rel. IC50): 6.84 µM
- b (bottom plateau of concentration-effect curve) (OVXF 1023): 11
- t (top plateau of concentration-effect curve) (OVXF 1023): 100
- b (bottom plateau of concentration-effect curve) (GXF 97): 20
- t (top plateau of concentration-effect curve) (GXF 97): 97
- IC50 (GXF 97; read-out: abs. IC50): 6.21 µM
- IC50 (GXF 97; read-out: rel. IC50): 5.71 µM
- IC50 (SXFS 627; read-out: abs. IC50): 5.84 µM
- IC50 (SXFS 627; read-out: rel. IC50): 5.74 µM
- b (bottom plateau of concentration-effect curve) (SXFS 627): 7
- t (top plateau of concentration-effect curve) (SXFS 627): 96
- IC50 (RXF 486; read-out: abs. IC50): 12.8 µM
- IC50 (RXF 486; read-out: rel. IC50): 12.7 µM
- b (bottom plateau of concentration-effect curve) (RXF 486): 5
- t (top plateau of concentration-effect curve) (RXF 486): 97
- b (bottom plateau of concentration-effect curve) (CXF 647): 20
- t (top plateau of concentration-effect curve) (CXF 647): 97
- IC50 (CXF 647; read-out: abs. IC50): 24.2 µM
- IC50 (CXF 647; read-out: rel. IC50): 16.5 µM
- IC50 (MAXF 713; read-out: abs. IC50): 9.16 µM
- IC50 (MAXF 713; read-out: rel. IC50): 8.6 µM
- b (bottom plateau of concentration-effect curve) (MAXF 713): 43
- t (top plateau of concentration-effect curve) (MAXF 713): 108
- IC50 (PXF 1752; read-out: abs. IC50): 8.98 µM
- IC50 (PXF 1752; read-out: rel. IC50): 8.85 µM
- b (bottom plateau of concentration-effect curve) (PXF 1752): 15
- t (top plateau of concentration-effect curve) (PXF 1752): 109
- b (bottom plateau of concentration-effect curve) (CXF 243): 46
- t (top plateau of concentration-effect curve) (CXF 243): 102
- IC50 (CXF 243; read-out: abs. IC50): 9.22 µM
- IC50 (CXF 243; read-out: rel. IC50): 8.63 µM
